Laboratory results reported in PMC6278378, “Virtual Screening, Biological Evaluation, and 3D-QSAR Studies of New HIV-1 Entry Inhibitors That Function via the CD4 Primary Receptor” (Molecules, 2018).
“Also recorded” adds a separate entry of the source.

Tests used:
[1] = biological target: T1, CD4 (Homo sapiens, UniProt P01730); assay: CD4 competitive binding assay (FITC anti-human CD4 antibody, SUP-T1 cells)
T1 construct: endogenous in cells; host or cells: SUP-T1 cells
Procedure: We chose CD4-expressing SUP-T1 cells to perform the competitive CD4 binding assay. Non-labeled anti-human CD4 antibody (RPA-T4 clone, BioLegend, San Diego, CA, USA) was used as a positive control.
The SUP-T1 cells were cultured in RPMI1640 medium supplemented with 10% (v/v) fetal bovine serum (FBS), 100 IU penicillin, 0.1 mg/mL streptomycin, and 2 mM L-glutamine. After collecting and washing twice with fluorescence activated cell sorting (FACS) buffer (0.5% BSA, 0.05% sodium azide in PBS) by centrifugation, SUP-T1 cells were seeded in a 96-well v-bottom plate at 5 × 10^5 cells/well. The supernatant was discarded by centrifugation and the cell pellet was resuspended with 50 μL various 2× concentrations of test compounds and 50 μL fluorescein isothiocyanate (FITC) labeled anti-human CD4 antibody (RPA-T4 clone, BioLegend, San Diego, CA, USA). The plate was incubated for 40 min on ice. After incubation, the cells were washed twice with FACS buffer by centrifugation, and then resuspended with the assay buffer. The FACS buffer was added at a volume of 50 μL per well. The fluorescence (485EX/528EM) was recorded using a Synergy II plate reader (BioTek Instruments, Inc., Winooski, VT, USA). Experimental data were generated in duplicate each time, and from at least three independent experiments. The mean values of fluorescence were normalized and expressed as a percentage of the control group values. Binding curves and IC50 values were calculated by GraphPad Prism 7 (GraphPad Software Inc., La Jolla, CA, USA) and presented as the mean ± SEM.

[2] = system: SUP-T1 cells; assay: SUP-T1 cell viability assay; type: cell-based; conditions: up to 200 μM
Procedure: We also performed a cell viability assay to test the potential cytotoxicity of 3. In parallel with the competitive CD4 binding assay described above, the same densities of SUP-T1 cells were seeded and treated with the test compounds for the same duration.

[3] = system: HIV-1 NL4-3 strain; assay: Anti-HIV-1 infection assay (CEM-GFP reporter cells, GFP fluorescence); type: cell-based; conditions: Human immunodeficiency virus 1, NL43, HIV-1 NL4-3, 4-5 days
Source text: We performed anti-HIV-1 infection and anti-HIV-1 entry assays by measuring GFP expression and intracellular p24 antigen level. For the anti-HIV-1 infection assays, the CEM-GFP reporter cell line was used, and HIV-1 infection induced a 10- to 1000-fold increase in the relative fluorescence of the cells.
The CEM-GFP cells were obtained from the NIH AIDS program (NIH AIDS Reagent Program, Division of AIDS, NIAID, NIH: CEM-GFP Cells from Dr. Jacques Corbeil) and cultured in RPMI 1640 medium containing 10% FBS, 1% penicillin-streptomycin (Life Technologies, Carlsbad, CA, USA), 1% 200 mM L-glutamine (Mediatech-VWR, Aurora, CO, USA), and 500 µg/mL G418 (BioPioneer Inc, San Diego, CA, USA). After collecting and counting, the CEM-GFP cells were infected with HIV-1 NL4-3 strain (MOI 0.01) at 37 °C for 2–3 h, cells were then washed twice with PBS, and 10^5 cells/well were seeded into a 96-well plate in the presence of different concentrations of test compounds. After culturing at 37 °C with 5% CO2 for 4 or 5 days, the GFP fluorescence (485EX/528EM) was measured using a Synergy II microplate reader (BioTek Instruments, Inc., Winooski, VT, USA).

[4] = system: HIV-1 (NL4-3 strain); assay: microbe, parasite or virus in culture; type: cell-based; conditions: Human immunodeficiency virus 1, NL43, PBMC; PBMCs, HIV-1 NL4-3, 24 h; read-out: IC50, HIV-1 entry inhibition (intracellular p24)
Procedure: We also performed anti-HIV-1 entry assays to investigate the potential suppression by 3 of HIV-1 infection via its entry mechanism.
The Anti-HIV-1 entry assay was performed by measuring intercellular p24 antigen. Before the infection, PBMCs (2.5 × 10^6 cells/mL) were added into 96-well plates at 100 μL/well, then co-incubated with compounds of various concentrations for 2 h. PBMCs were then washed twice with PBS and infected with the NL4-3 strain of HIV-1 at an MOI of 0.02 for 2 h at 37 °C with 5% CO2 (CO2 incubator, Eppendorf, Hamburg, Germany). After two washes with PBS (1200 rpm, 20 °C, 5 min), the cells were re-suspended in 100 µL complete medium and incubated for 24 h. Subsequently, the PBMCs were washed and resuspended in 100 µL/well lysis buffer containing 1% protease inhibitor cocktail (Sigma-Aldrich, St. Louis, MO, USA). The intercellular p24 antigen was measured according to the protocol provided with the HIV-1 ELISA kit (PerkinElmer Inc. Waltham, MA, USA).

[5] = system: PBMCs; assay: PBMC viability assay (CellTiter-Blue); type: cell-based; conditions: up to 150 μM
Procedure: We employed a cell viability assay to test the potential cytotoxicity of 3. In parallel with the anti-HIV-1 assay described above, the same densities of PBMCs were seeded and treated with the test compounds for the same duration.
Blood samples were collected from healthy donors and diluted with an equal amount of 1× PBS. Approximately 15 mL Ficoll was transferred to a sterile 50 mL tube, and then overlaid with 15 mL diluted blood. After centrifugation (Centrifuge 5810R, Eppendorf, Hamburg, Germany) at 1800 rpm for 30 min at room temperature, the PBMCs were obtained and washed twice with 40 mL 1× PBS by centrifugation (1100 rpm, 10 min for each time) at room temperature. Cell pellets were resuspended in 50 mL RPMI 1640 supplemented with 10% FBS and 100 μg/mL Phytohemagglutinin (PHA, Sigma-Aldrich, St. Louis, MO, USA) and cultured for 24 h at 37 °C with 5% CO2. […]
In addition to the anti-HIV assays described above, the same numbers of PBMCs were seeded and treated with the test compounds for the same periods. After a 24 h incubation at 37 °C, the cell viability was determined using the CellTiter-Blue (Promega Co., Madison, WI, USA) cell viability assay. The fluorescence (560EX/590EM) was recorded using a Synergy II microplate reader.

[6] = system: HIV-1; design: method as in PMID 12207905; conditions: inactive or weakly active; cited from earlier work
[7] = system: various cancer cell lines; design: method as in PMID 26474275, PMID 22524450; conditions: 100 μM; by increasing intracellular ROS level; cited from earlier work

## O=C(O)CCc1c2ccc(=O)c(O)c-2oc2c(O)c(O)ccc12 [Compound 3, 3-(4,5,6-trihydroxy-3-oxo-3H-xanthen-9-yl) propanoic acid]
[1]; 100 μM, inhibition of anti-human CD4 antibody binding to SUP-T1 cells
  inhibition at 100 µM: 94.9%
[1]; SUP-T1 cells, anti-human CD4 antibody competition
  IC50: 45 µM
[1]; transformed from % inhibition at 100 μM, presented as -ln
  PInhibition (Experimental Data): 5.273
[2]
  Cytotoxicity in SUP-T1 cell viability assay: no cytotoxicity
[2]; listed as NSC119915
  Cytotoxicity in SUP-T1 cell viability assay: not showing any cytotoxicity
[3]
  IC50: 10 µM
[4]
  IC50: 9 µM
[5]
  Cytotoxicity in PBMCs: without a cytotoxicity effect; also recorded: no cytotoxicity; also recorded: did not show an ability to affect cell growth
[6]
  protection in anti-HIV-1 infection assay: 0–49%
[7]
  growth inhibition of cancer cell lines: inhibit the growth
